Source: patent publication US12343352B2, “N-(phenylsulfonyl)benzamides and related compounds as Bcl-2 inhibitors” (ASCENTAGE PHARMA (SUZHOU) CO., LTD., priority 2019, dated 2025)

Columns and labels:
[1] = Steady state pharmacokinetics in patients following multiple oral doses; type: in vivo; settings: human, plasma, multiple oral doses of 400 mg once daily; for AUC(0-t): read-out: AUC(0-24 h); for half-life: read-out: T½ (converted)
[2] = test system: CYP enzymes; test: Comparative metabolism studies: metabolizing CYP enzymes and CYP inhibition/induction (liver microsome assays); type: in vitro ADME
Method: (§1) Metabolism studies of Compound 1 and Compound Z were evaluated in both mouse and dog liver microsome assays.

[3] = Mouse liver microsome assay / metabolites in mouse plasma; type: in vitro ADME
Method: as §1

[4] = Dog liver microsome assay / metabolites in dog plasma; type: in vitro ADME
Method: as §1

[5] = Pharmacokinetic properties of Compound 1 compared with Compound Z (systemic exposure and tumor tissues); type: in vivo; settings: versus Compound Z
[6] = Metabolites in human plasma; type: in vivo

Cmax [1] [ng/mL] | Tmax [1] [h] | AUC(0-t) [1] [ng·h/mL] | half-life [1] [h] | mainly metabolized by (CYP enzymes) ([2]; mouse, dog, microsomes) | major metabolite (>10%) in mouse plasma ([3]; mouse liver microsome assay) | metabolites found in dog plasma [4] | Cmax in systemic exposure relative to Compound Z ([5]; systemic exposure) | half-life in systemic exposure relative to Compound Z ([5]; systemic exposure) | Cmax in tumor tissues relative to Compound Z ([5]; tumor tissues) | half-life in tumor tissues relative to Compound Z ([5]; tumor tissues) | mainly metabolized by (CYP enzymes) ([2]; mouse and dog liver microsome assays) | other metabolites found in mouse plasma ([3]; mouse plasma) | major metabolite (>10%) in human plasma [6] | SMILES | inhibition or induction of major CYP enzymes [2]
970 | 6 | 9960 | 4.43 | CYP3A4 and CYP2C8 | amide bond hydrolysis M2 | minor oxidation metabolites | higher | shorter | higher | similar |  |  |  | O=C(NS(=O)(=O)c1ccc(NC[C@H]2COCCO2)c([N+](=O)[O-])c1)c1ccc(N2CCN(CC3=C(c4ccc(Cl)cc4)CC4(CCC4)CC3)CC2)cc1Oc1cnc2[nH]ccc2c1 [Compound 1, (S)-N-((4-(((1,4-dioxan-2-yl)methyl)amino)-3-nitrophenyl)sulfonyl)-2-((1H-pyrrolo[2,3-b]pyridin-5-yl)oxy)-4-(4-((6-(4-chlorophenyl)spiro[3.5]non-6-en-7-yl)methyl)piperazin-1-yl)benzamide] | not found to inhibit or induce any major CYP enzymes
2180 | 7 | 35500 | 26 |  |  | minor oxidation metabolites |  |  |  |  | CYP3A4 and CYP3A5 | minor oxidation metabolites | oxidative metabolite M27 | CC1(C)CCC(CN2CCN(c3ccc(C(=O)NS(=O)(=O)c4ccc(NCC5CCOCC5)c([N+](=O)[O-])c4)c(Oc4cnc5[nH]ccc5c4)c3)CC2)=C(c2ccc(Cl)cc2)C1 [Compound Z, Venetoclax, reference compound] | 
